We go through one molecule from ChEMBL document CHEMBL3745709, “Synthesis of novel ethyl 1-ethyl-6-fluoro-7-(fatty amido)-1,4-dihydro-4-oxoquinoline-3-carboxylate derivatives and their biological evaluation” (Bioorg Med Chem Lett, 2016).

Each structure is given as a SMILES string. Converted amounts (≈) assume the structure as drawn.

Test [1] relates to Bacillus subtilis. Briefly: Bactericidal activity against Bacillus subtilis MTCC 121 assessed as microbial killing after 24 hrs. The class given is functional. To be noted: MTCC 121, 24 h.
Test [2] has as its system Staphylococcus aureus. Briefly: Bactericidal activity against Staphylococcus aureus MLS-16 MTCC 2940 assessed as microbial killing after 24 hrs. The class given is functional. The following applies: MLS-16 MTCC 2940, 24 h.
In test [3] the test system is Escherichia coli. Briefly: Antibiofilm activity against Escherichia coli MTCC 739 after 24 hrs by crystal violet staining method. The following applies: MTCC 739, 24 h. In kind it is functional, organism-based.
For test [4], the system named is Bacillus subtilis. Briefly: Antibiofilm activity against Bacillus subtilis MTCC 121 after 24 hrs by crystal violet staining method. To be noted: MTCC 121, 24 h. In kind it is functional, organism-based.
Test [5] has as its system Escherichia coli. Briefly: Bactericidal activity against Escherichia coli MTCC 739 assessed as microbial killing after 24 hrs. The class given is functional. The following applies: MTCC 739, 24 h.
The test system of another test is Raoultella planticola. Briefly: Antibacterial activity against Klebsiella planticola MTCC 530 assessed as inhibition zone after 24 hrs at 30 degC by well diffusion method. The class given is functional. To be noted: MTCC 530, 24 h.
The test system of test [6] is Staphylococcus aureus. Briefly: Antibacterial activity against Staphylococcus aureus MLS-16 MTCC 2940 assessed as inhibition zone after 24 hrs at 30 degC by well diffusion method. The following applies: MLS-16 MTCC 2940, 24 h. In kind it is functional. On the technique in general: A growth-free zone around the sample is the usual read-out of agar diffusion tests.
Test [7] deals with Staphylococcus aureus. Briefly: Antibiofilm activity against Staphylococcus aureus MTCC 96 after 24 hrs by crystal violet staining method. In kind it is functional, organism-based. The following applies: MTCC 96, 24 h.
The subject of test [8] is Escherichia coli. Briefly: Antibacterial activity against Escherichia coli MTCC 739 assessed as inhibition zone after 24 hrs at 30 degC by well diffusion method. In kind it is functional. To be noted: MTCC 739, 24 h.
The test system of a further test is Pseudomonas aeruginosa. Briefly: Antibacterial activity against Pseudomonas aeruginosa MTCC 2453 assessed as inhibition zone after 24 hrs at 30 degC by well diffusion method. In kind it is functional. To be noted: MTCC 2453, 24 h.
A further test concerns Micrococcus luteus. Briefly: Antibacterial activity against Micrococcus luteus MTCC 2470 assessed as inhibition zone after 24 hrs at 30 degC by well diffusion method. The class given is functional. To be noted: MTCC 2470, 24 h.
Test [9] concerns Bacillus subtilis. Briefly: Antibacterial activity against Bacillus subtilis MTCC 121 assessed as inhibition zone after 24 hrs at 30 degC by well diffusion method. To be noted: MTCC 121, 24 h. In kind it is functional.
Test [10] deals with Staphylococcus aureus. Briefly: Antibacterial activity against Staphylococcus aureus MTCC 96 […] after 24 hrs at 30 degC by well diffusion method. The class given is functional. To be noted: MTCC 96, 24 h.
For test [11], the system named is Staphylococcus aureus. Briefly: Antibiofilm activity against Staphylococcus aureus MLS-16 MTCC 2940 after 24 hrs by crystal violet staining method. The class given is functional, organism-based. The following applies: MLS-16 MTCC 2940, 24 h.
Test [12] deals with Staphylococcus aureus. Briefly: Bactericidal activity against Staphylococcus aureus MTCC 96 assessed as microbial killing after 24 hrs. In kind it is functional. The following applies: MTCC 96, 24 h.

Regarding `O=C(O)c1cn(C2CC2)c2cc(N3CCNCC3)c(F)cc2c1=O` [CIPROFLOXACIN], the MBC with Bacillus subtilis [1] was determined as 1.9 µg/mL (≈ 5.73 µM); in the test with Staphylococcus aureus [2], 0.9 µg/mL (≈ 2.72 µM); in the test with Escherichia coli [5], 0.9 µg/mL (≈ 2.72 µM); in the test on Staphylococcus aureus [12], 0.9 µg/mL (≈ 2.72 µM). Also, the IC50 stood at 0.5 µg/mL (≈ 1.51 µM) with Escherichia coli [3], 0.7 µg/mL (≈ 2.11 µM) with Bacillus subtilis [4], 0.6 µg/mL (≈ 1.81 µM) with Staphylococcus aureus [7] and 0.4 µg/mL (≈ 1.21 µM) with Staphylococcus aureus [11]. Also, the MIC with Raoultella planticola, with Staphylococcus aureus [6], in the test on Escherichia coli [8], in the test on Pseudomonas aeruginosa, with Micrococcus luteus and with Bacillus subtilis [9] was 0.9 µg/mL (≈ 2.72 µM) in each case. In the test with Staphylococcus aureus [10], this molecule gave an MIC of 0.9 µg/mL (≈ 2.72 µM).

As a reminder, the MBC is the lowest tested concentration that kills the bacteria rather than only halting them. A word on the IC50: it is the concentration at which inhibition is half-maximal. Read a low IC50 as greater potency. As usually defined, the MIC is the lowest concentration that inhibits growth of the organism.
